Experimental findings from patent publication US20140102978A1, “Composition and Method for Remediation of Contaminated Water” (JRW BIOREMEDIATION LLC, priority 2012, published 2014) are described below.

The nature of the series: Thiosulfate/Gluconate physical compatibility screening. It counts as physicochemical. The note with it: heated to no more than 115° F, visual and olfactory. From the text:
The final solution was stored at room temperature for 15 days and then examined to determine relative storage stability.

Take ferrous gluconate: the Observation entry (1 g ferrous gluconate (Mole % 4%) added to 25 g sodium thiosulfate) is on record as “Mild odor, dissolved when warmed”; the Observation entry (2 g ferrous gluconate (Mole % 7%) added to 25 g sodium thiosulfate) is “Mild odor, dissolved when warmed”; the Observation entry (3 g ferrous gluconate (Mole % 11%) added to 25 g sodium thiosulfate) is recorded as “Mod odor, dissolved when warmed”; the Observation result (4.5 g ferrous gluconate (Mole % 16%) added to 25 g sodium thiosulfate) was “Mod odor, dissolved when warmed”; the Observation result (5 g ferrous gluconate (Mole % 19%) added to 25 g sodium thiosulfate) is “Mod odor, dissolved when warmed”; the Observation result (6 g ferrous gluconate (Mole % 22%) added to 25 g sodium thiosulfate) is “Mod odor, dissolved when warmed”. The Observation result is “Mod odor, dissolved when warmed” (7 g ferrous gluconate (Mole % 26%) added to 25 g sodium thiosulfate); “Mod odor, dissolved when warmed” (8 g ferrous gluconate (Mole % 30%) added to 25 g sodium thiosulfate); “Mod odor, dissolved when warmed” (9 g ferrous gluconate (Mole % 33%) added to 25 g sodium thiosulfate); “Mod odor, dissolved when warmed” (10 g ferrous gluconate (Mole % 37%) added to 25 g sodium thiosulfate); “Mod odor, dissolved when warmed” (14 g ferrous gluconate (Mole % 52%) added to 25 g sodium thiosulfate).
